Source: patent US6989148B2, “Treatment of diabetes” (priority 1994, dated 2006)
Entries after “also recorded” stand apart in the source; their conditions may differ.

What was measured:
Type II diabetics = conditions: Gutniak et al. (1992), WO93/18786; cited from earlier work
[1] = test system: subjects with remission phase Type I diabetes; assay: Sustacal meal with intravenous GLIP infusion 1.2 pm/kg/min (Example 1); assay type: in vivo, human
Method: 7 subjects with remission phase Type I diabetes were studied after ingestion of a standardised meal of Sustacal (Upjohn) (delivering […]). Subjects continued their normal insulin treatment programme on the day prior to the test and, on the day of the test, omitted their morning insulin injection and arrived fasting at 8:00 am. […] Infusion was continued for 120 minutes. Blood levels of glucose, C-peptide, gastrin, glucagon and HPP were monitored by standard radioimmunoassay methods in samples taken before and at intervals during the study, up to 180 minutes. On another test day, subjects were given the Sustacal meal alone and the same analytes were similarly monitored.

[2] = test system: subjects with remission phase Type I diabetes; assay: Sustacal meal with infusion of 0.75 pm/kg/min GLIP versus saline (Example 3); assay type: in vivo, human; conditions: 0.75 pmol/kg/min GLIP along with Sustacal meal, versus saline control; FIG. 3
Method: The test was conducted as described in Example 1 and blood glucose and C-peptide levels were measured. On a further test day, the subjects were studied during saline infusion after a similar Sustacal meal.

Type I diabetic subjects = assay: Sustacal meal preceded by subcutaneous GLIP injection in Type I diabetics (Example 5); assay type: in vivo, human; conditions: 100 μg GLIP subcutaneously prior to test meal
Excerpt: 7 Type I diabetic subjects were studied.
The results are shown in FIG. 5. *indicates statistically significant differences between treatments (p<0.05)

humans and other mammals = conditions: Wettergren et al. (1993); cited from earlier work
Type 1 diabetic subject = assay: GLIP along with insulin before Sustacal meal, post-prandial glycaemia (Example 6); assay type: in vivo, human; conditions: 50 μg GLIP with 5 units insulin (half the usual dose) subcutaneously before meal; one subject; FIG. 6 Panel A
Method: One Type 1 diabetic subject was given GLIP along with insulin and the effects on post-prandial glycaemia observed. The subject received 5 units of insulin and 50 μg GLIP as subcutaneous injections immediately prior to ingestion of a Sustacal meal as described in Example 1. Blood levels of GLIP were monitored by a standard radioimmunoassay method.

[3] = test system: subjects with remission phase Type I diabetes; assay: Intravenous glucose infusion with intravenous GLIP (Example 2); assay type: in vivo, human; conditions: IV GLIP 1.2 pm/kg/min for 60 min along with IV glucose 20 g over 60 min; FIG. 2
Method: Four subjects with remission phase Type I diabetes were studied during intravenous glucose infusion. Subjects prepared for the tests as described in Example 1, but received an intravenous infusion of glucose (20 g over 60 min. constant rate)instead of the Sustacal meal. […] Blood levels of glucose and C-peptide were monitored as in Example 1.

normal volunteers = assay: Sustacal meal preceded by subcutaneous GLIP injection in normal volunteers (Example 4); assay type: in vivo, human; conditions: subcutaneous GLIP (100 μg; b67 prints 1.00 μg) before Sustacal meal
Excerpt: Results are shown in FIG. 4. *indicates statistically significant differences between treatments (p<0.05).

[4] = IV infusion 1.2 pm/kg/min after Sustacal meal

Glucagon-like peptide 1(7-36)amide [GLIP]
effect of combination with oral hypoglycaemic agents (Type II diabetics): synergistic effect | blood levels of C-peptide [1, 4]: prevented a significant increase in blood levels of C-peptide | plasma glucagon levels stimulated by the meal [1, 4]: prevented the mean rise in plasma glucagon levels | secretion of pancreatic polypeptide (PP) after meal ([1]; IV infusion 1.2 pm/kg/min after Sustacal meal, FIG. 1 Panel C): this response was absent during GLIP infusion | gastrin levels / gastrin response ([1]; IV infusion 1.2 pm/kg/min after Sustacal meal, FIG. 1 Panel E): normal gastrin response; also recorded: not significantly affected | blood glucose level after a meal ([1]; IV infusion 1.2 pm/kg/min for 120 min after Sustacal meal, FIG. 1 Panel A): excellent control of blood glucose level | increase in blood glucose [2]: increase in glucose was less than in the control experiment | rise in C-peptide [2]: rise in C-peptide was similar to the control experiment | blood glucose levels compared to control (Type I diabetic subjects; no morning insulin, FIG. 5 Panel A): lowering of blood glucose levels | pancreatic polypeptide (HPP) levels (Type I diabetic subjects; FIG. 5 Panel D): delayed rise in pancreatic polypeptide (HPP) levels | insulin secretion over control levels (Type I diabetic subjects; FIG. 5 Panels B and C): no enhancement of insulin secretion over control levels | gastric emptying (humans and other mammals): delay of gastric emptying | blood glucose after Sustacal meal (maximum) (Type 1 diabetic subject): ≤ 8 mM | blood glucose level [3]: improved control of blood glucose level | secretion of endogenous insulin [3]: stimulated secretion of endogenous insulin | increase in blood levels of C-peptide (normal volunteers): delay in increase | increase in blood levels of HPP (normal volunteers): delay in increase | increase in blood levels of glucose (normal volunteers): delay in increase | increase in blood levels of insulin (normal volunteers): delay in increase
